In patent publication US20100310660A1, “DRY POWDER MICROPARTICLES FOR PULMONARY DELIVERY” (TAIPEI MEDICAL UNIVERSITY, priority 2009, published 2010):
Counter-ions that a name gives are not always drawn.

System: A549 cells
Test: Photocytotoxicity (MTT assay after LED irradiation)
Type: cell-based, Human
Details: 0.5 μg/ml Hp, 3 hours
Procedure: Human lung adenocarcinoma A549 cells were kept in a humidified incubator containing 5% CO2 at 37° C. A549 cells were cultured in DMEM supplemented with 10% fetal bovine serum (FBS) and 1% penicillin-streptomycin (GIBCO BRL, USA). The cells were routinely grown in tissue culture flask and harvested with a solution of 1% trypsin while in the logarithmic phase of growth. The cells were kept in the above culture conditions for experiments.
A549 cells were grown in 96-well plates at a density of 8×10^3 cells/well for 24 hours. […] The cells were incubated for 3 hours (protection from light) and washed once with 100 μl PBS/well. The no phenol red medium (100 μl/well) was added to the cells and then irradiated with various doses of light using LED (635±5 nm, 60 mW/cm^2) light source. After light irradiation, the original medium was removed and DMEM containing 10% FBS was added to each well. Twenty-four hours later, cell survival was measured using an MTT [3(4,5-dimethyl-thiazoyl-2-yl) 2,5 diphenyl-tetrazolium bromide] assay. The MTT assay was based on the activity of mitochondria dehydrogenases wherein a water-soluble tetrazolium salt was reduced to a purple insoluble formazan product. The amount of MTT formazan product was analyzed with spectrophotometer at the absorbance of 570 nm.

CC1=C(CCC(=O)O)c2cc3[nH]c(cc4nc(cc5[nH]c(cc1n2)c(C)c5C(C)O)C(C)=C4C(C)O)c(C)c3CCC(=O)O (centres unmarked) [Hp, Hematoporphyrin Dihydrochloride]
cells alive (irradiation at 4 J/cm2): 89% | cells alive (irradiation at 12 J/cm2): 75%
